According to patent US20230330280A1, “PREPARATIONS OF RADIUM-224 AND PROGENIES FOR USE IN RADIONUCLIDE THERAPY IN COMBINATION WITH DNA REPAIR INHIBITORS” (priority 2020, published 2023):
Like-named read-outs stand apart in the source and are kept apart here.

Key:
[1] = system: ES-2 (clear cell carcinoma) ovarian cancer cell line; assay: CyQuant NF cell proliferation assay (DNA content), single agents and paired combinations, ES-2; format: cell-based
Source text: (§1) Ovarian cancer cell lines: ES-2 (clear cell carcinoma) and SKOV-3 (adenocarcinoma), were used to investigate the pharmacodynamic interactions resulting from the paired combination of Radium-224 (^224Ra) with a DNA repair inhibitor exemplified by the poly (ADP-ribose) polymerase inhibitors (PARPi); niraparib and olaparib.

[2] = system: SKOV-3 (adenocarcinoma) ovarian cancer cell line; assay: CyQuant NF cell proliferation assay (DNA content), single agents and paired combinations, SKOV-3; format: cell-based; conditions: Homo sapiens
Source text: as §1

[3] = 72 h, ES-2, Day 3, PARPi in paired combination with 224Ra, read-out: Paired combination IC50
[4] = 72 h, ES-2, Day 3, single agent, read-out: Single agent IC50
[5] = 96 h, ES-2, Day 4, PARPi in paired combination with 224Ra, read-out: Paired combination IC50
[6] = 96 h, ES-2, Day 4, single agent, read-out: Single agent IC50
[7] = 120 h, ES-2, Day 5, PARPi in paired combination with 224Ra, read-out: Paired combination IC50
[8] = 120 h, ES-2, Day 5, single agent, read-out: Single agent IC50
[9] = SK-OV-3, 72 h, SKOV-3, Day 3, PARPi in paired combination with 224Ra, read-out: Paired combination IC50
[10] = SK-OV-3, 72 h, SKOV-3, Day 3, single agent, read-out: Single agent IC50
[11] = SK-OV-3, 96 h, SKOV-3, Day 4, PARPi in paired combination with 224Ra, read-out: Paired combination IC50
[12] = SK-OV-3, 96 h, SKOV-3, Day 4, single agent, read-out: Single agent IC50
[13] = SK-OV-3, 120 h, SKOV-3, Day 5, PARPi in paired combination with 224Ra, read-out: Paired combination IC50
[14] = SK-OV-3, 120 h, SKOV-3, Day 5, single agent, read-out: Single agent IC50

| SMILES | IC50 [1, 3] [nM] | IC50 [1, 4] [nM] | IC50 [1, 5] [nM] | IC50 [1, 6] [nM] | IC50 [1, 7] [nM] | IC50 [1, 8] [nM] | IC50 [2, 9] [nM] | IC50 [2, 10] [nM] | IC50 [2, 11] [nM] | IC50 [2, 12] [nM] | IC50 [2, 13] [nM] | IC50 [2, 14] [nM] |
| --- | --- | --- | --- | --- | --- | --- | --- | --- | --- | --- | --- | --- |
| NC(=O)c1cccc2cn(-c3ccc([C@@H]4CCCNC4)cc3)nc12 [Niraparib, niraparib] | 420 | 690 | 250 | 780 | 360 | 620 | 2450 | 5160 | 430 | 2830 | 220 | 2200 |
| O=C(c1cc(Cc2n[nH]c(=O)c3ccccc23)ccc1F)N1CCN(C(=O)C2CC2)CC1 [Olaparib, olaparib] | 1430 | 3510 | 500 | 1230 | 930 | 2210 | 10200 | 21400 | 2670 | 23600 | 810 | 1830 |
